Experimental data taken from patent publication US20230203043A1, “NOVEL IMIDAZOPYRAZINE DERIVATIVES” (Hoffmann-La Roche Inc., priority 2020, published 2023).
Counter-ions that a name gives are not always drawn.

The molecules below were run on Acinetobacter baumannii ATCC17961 (assay: Antimicrobial susceptibility testing: 90% growth inhibitory concentration (IC90) determination in Iso-Sensitest broth, OD600 growth). Details: Acinetobacter baumannii, ATCC17961, 16 h, read-out: A. baumannii ATCC 17961 IC90 (uM), strain ATCC 17961, OD600 growth over 16 h.
Format: cell-based
Procedure, shortened: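 Growth monitored at 600 nm every 20 min for 16 h at 35±2 °C, inoculum ~5×10^(5) CFU/ml in Iso-Sensitest medium. Compounds in 10-point twofold series, e.g. 50 to 0.097 μM final; 90% inhibitory concentration taken from log-phase growth.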

**Q.** `CCc1cc(Nc2nccn3c(-c4cn(CC#N)nc4C(F)(F)F)cnc23)ccc1C(=O)NCC(=O)N1CCNC(C)C1` (stereo not shown) [Example 507, 4-[[3-[1-(cyanomethyl)-3-(trifluoromethyl)pyrazol-4-yl]imidazo[1,2-a]pyrazin-8-yl]amino]-2-ethyl-N-[2-(3-methylpiperazin-1-yl)-2-oxo-ethyl]benzamide formate] was tested. Which IC90 did it give?
**A.** 0.245 µM

**Q.** For `CCc1cc(Nc2nccn3c(-c4cn(C5CC(F)(F)C5)nc4C(F)(F)F)cnc23)ccc1C(=O)NCCOCCCN` [Example 670, N-(2-(3-aminopropoxy)ethyl)-4-((3-(1-(3,3-difluorocyclobutyl)-3-(trifluoromethyl)-1H-pyrazol-4-yl)imidazo[1,2-a]pyrazin-8-yl)amino)-2-ethylbenzamide formate], which IC90 is on record?
**A.** 0.304 µM

**Q.** How did the IC90 turn out when `O=C(CN1CCN(C(=O)c2ccc(Nc3nccn4c(-c5cn(CC(F)F)nc5C(F)(F)F)cnc34)cc2Cl)CC1)N1CCNCC1` [Example 608, 2-(4-(2-chloro-4-((3-(1-(2,2-difluoroethyl)-3-(trifluoromethyl)-1H-pyrazol-4-yl)imidazo[1,2-a]pyrazin-8-yl)amino)benzoyl)piperazin-1-yl)-1-(piperazin-1-yl) ethan-1-one formate] was run?
**A.** 0.936 µM

**Q.** `O=C(c1ccc(Nc2nccn3c(-c4cn(Cc5ncccn5)nc4C(F)(F)F)cnc23)cc1Cl)N1CCNCC1` [Example 169, [2-chloro-4-[[3-[1-(pyrimidin-2-ylmethyl)-3-(trifluoromethyl)pyrazol-4-yl]imidazo[1,2-a]pyrazin-8-yl]amino]phenyl]-piperazin-1-ylmethanone formate] was tested. Which IC90 did it give?
**A.** 0.392 µM

**Q.** `CCc1cc(Nc2nccn3c(-c4cn(CC=C(C)C)nc4C(F)(F)F)cnc23)ccc1C(=O)NCCOCCN` [Example 614, N-(2-(2-aminoethoxy)ethyl)-2-ethyl-4-((3-(1-(3-methylbut-2-en-1-yl)-3-(trifluoromethyl)-1H-pyrazol-4-yl)imidazo[1,2-a]pyrazin-8-yl)amino)benzamide formate] was tested. Which IC90 did it give?
**A.** 0.11 µM

**Q.** For `CCc1cc(Nc2nccn3c(-c4cn(CC#N)nc4C(F)(F)F)cnc23)ccc1C(=O)NCCCNC(=O)CCN` [Example 702, N-(3-(3-aminopropanamido)propyl)-4-((3-(1-(cyanomethyl)-3-(trifluoromethyl)-1H-pyrazol-4-yl)imidazo[1,2-a]pyrazin-8-yl)amino)-2-ethylbenzamide formate], which IC90 is on record?
**A.** 0.383 µM

Same assay, conditions: Acinetobacter baumannii, ATCC17961, 16 h, strain ATCC 17961, OD600 growth over 16 h, read-out: A. baumannii ATCC 17961 IC90

**Q.** Which IC90 does the source give for `C#CCn1cc(-c2cnc3c(Nc4ccc(C(=O)N5CCN(C(=O)[C@H]6C[C@H](N)C6)CC5)c(CC)c4)nccn23)c(C(F)F)n1` [Example 734, (4-((1r,3r)-3-aminocyclobutane-1-earbonyl)piperazin-1-yl)(4-((3-(3-(difluoromethyl)-1-(prop-2-yn-1-yl)-1H-pyrazol-4-yl)imidazo[1,2-a]pyrazin-8-yl)amino)-2-ethylphenyl)methanone] here?
**A.** 0.489 µM

**Q.** Which IC90 does the source give for `C#CCn1cc(-c2cnc3c(Nc4ccc(C(=O)NCCOC[C@@H](C)N)c(CC)c4)nccn23)c(C(F)(F)F)n1` [Example 149, N-[2-[(2R)-2-aminopropoxy]ethyl]-2-ethyl-4-[[3-[1-prop-2-ynyl-3-(trifluoromethyl)pyrazol-4-yl]imidazo[1,2-a]pyrazin-8-yl]amino]benzamide] here?
**A.** 0.102 µM

**Q.** With `CCc1cc(Nc2nccn3c(-c4cn(CC#N)nc4C(F)F)cnc23)ccc1C(=O)N1CCN(C(=O)[C@H]2C[C@H](N)C2)CC1` [Example 800, 2-(4-(8-((4-(4-((1r,3r)-3-aminocyclobutane-1-carbonyl)piperazine-1-carbonyl)-3-ethylphenyl)amino)imidazo[1,2-a]pyrazin-3-yl)-3-(difluoromethyl)-1H-pyrazol-1-yl)acetonitrile] as the molecule, how does the IC90 read?
**A.** 2.78 µM

**Q.** Which IC90 does the source give for `CCc1cc(Nc2nccn3c(-c4cn(CCF)nc4C(F)F)cnc23)ccc1C(=O)N1CCN(C(=O)CN)CC1` [Example 788, 2-amino-1-(4-(4-((3-(3-(difluoromethyl)-1-(2-fluoroethyl)-1H-pyrazol-4-yl)imidazo[1,2-a]pyrazin-8-yl)amino)-2-ethylbenzoyl)piperazin-1-yl)ethan-1-one] here?
**A.** 1.6 µM

**Q.** For `CCc1cc(Nc2nccn3c(-c4cn(CCF)nc4C(F)(F)F)cnc23)ccc1C(=O)NCC1CC1N` (stereo not shown) [Example 640, N-((2-aminocyclopropyl)methyl)-2-ethyl-4-((3-(1-(2-fluoroethyl)-3-(trifluoromethyl)-1H-pyrazol-4-yl)imidazo[1,2-a]pyrazin-8-yl)amino) benzamide formate], which IC90 is on record?
**A.** 0.229 µM

**Q.** `CCc1cc(Nc2nccn3c(-c4c[nH]nc4C(F)(F)F)cnc23)ccc1C(=O)NCCCNCCCCNCCCN` [Example 270, N-[3-[4-(3-aminopropylamino)butylamino]propyl]-2-ethyl-4-[[3-[3-(trifluoromethyl)-1H-pyrazol-4-yl]imidazo[1,2-a]pyrazin-8-yl]amino]benzamide] was tested. Which IC90 did it give?
**A.** 2.66 µM

**Q.** For `CCc1cc(Nc2nccn3c(-c4cn(C)nc4C(F)(F)F)cnc23)ccc1C(=O)NCCCNC(=O)[C@@H]1C[C@@H](O)CN1` [Example 437, (2S,4R)-N-[3-[[2-ethyl-4-[[3-[1-methyl-3-(trifluoromethyl)pyrazol-4-yl]imidazo[1,2-a]pyrazin-8-yl]amino]benzoyl]amino]propyl]-4-hydroxypyrrolidine-2-carboxamide], which IC90 is on record?
**A.** 1.02 µM

**Q.** Which IC90 does the source give for `CCc1cc(Nc2nccn3c(-c4cn(CC(F)F)nc4C(F)(F)F)cnc23)ccc1C(=O)N1CCN(C(=O)C2CCNCC2)CC1` [Example 70, [4-[[3-[1-(2,2-difluoroethyl)-3-(trifluoromethyl)pyrazol-4-yl]imidazo[1,2-a]pyrazin-8-yl]amino]-2-ethylphenyl]-[4-(piperidine-4-carbonyl)piperazin-1-yl]methanone] here?
**A.** 0.489 µM

**Q.** With `N#CCn1cc(-c2cnc3c(Nc4ccc(C(=O)N5CC[C@@H](O)C5)c(Cl)c4)nccn23)c(C(F)(F)F)n1` [Example 244, 2-[4-[8-[3-chloro-4-[(3R)-3-hydroxypyrrolidine-1-carbonyl]anilino]imidazo[1,2-a]pyrazin-3-yl]-3-(trifluoromethyl)pyrazol-1-yl]acetonitrile] as the molecule, how does the IC90 read?
**A.** 0.411 µM

**Q.** With `CCc1cc(Nc2nccn3c(-c4cn(CC#N)nc4C#N)cnc23)ccc1C(=O)NCCOCCN` [Example 830, N-(2-(2-aminoethoxy)ethyl)-4-((3-(3-cyano-1-(cyanomethyl)-1H-pyrazol-4-yl)imidazo[1,2-α]pyrazin-8-yl)amino)-2-ethyl-benzamide] as the molecule, how does the IC90 read?
**A.** 0.58 µM

**Q.** For `CCc1cc(Nc2nccn3c(-c4cn(C(F)F)nc4C(F)(F)F)cnc23)ccc1C(=O)NCCNC(=O)[C@@H]1CCCN1` [Example 36, (2S)-N-[2-[[4-[[3-[1-(difluoromethyl)-3-(trifluoromethyl)pyrazol-4-yl]imidazo[1,2-a]pyrazin-8-yl]amino]-2-ethylbenzoyl)amino]ethyl] pyrrolidine-2-carboxamide], which IC90 is on record?
**A.** 0.348 µM

**Q.** Which IC90 does the source give for `NCCC(=O)NCCNC(=O)c1ccc(Nc2nccn3c(-c4c[nH]nc4C(F)(F)F)cnc23)cc1Cl` [Example 299, N-[2-(3-aminopropanoylamino)ethyl]-2-chloro-4-[[3-[3-(trifluoromethyl)-1H-pyrazol-4-yl]imidazo[1,2-a]pyrazin-8-yl]amino]benzamide] here?
**A.** 0.699 µM

**Q.** Which IC90 does the source give for `O=C(c1ccc(Nc2nccn3c(-c4cn(C(F)F)nc4C(F)(F)F)cnc23)cc1Cl)N1CC2(C1)CN(C(=O)[C@@H]1CCCN1)C2` [Example 763, (S)-(2-chloro-4-((3-(1-(difluoromethyl)-3-(trifluoromethyl)-1H-pyrazol-4-yl)imidazo[1,2-a]pyrazin-8-yl)amino)phenyl)(6-prolyl-2,6-diazaspiro[3.3]heptan-2-yl)methanone] here?
**A.** 0.75 µM

**Q.** With `O=C(N[C@@H]1CCNC1)c1ccc(Nc2nccn3c(-c4c[nH]nc4C(F)(F)F)cnc23)cc1Cl` [Example 379, 2-chloro-N-[(3R)-pyrrolidin-3-yl]-4-[[3-[3-(trifluoromethyl)-1H-pyrazol-4-yl]imidazo[1,2-a]pyrazin-8-yl]amino]benzamide] as the molecule, how does the IC90 read?
**A.** 0.576 µM

**Q.** For `C=CCn1cc(-c2cnc3c(Nc4ccc(C(=O)N5CCN(C(=O)[C@@H]6C[C@@H](O)CN6)CC5)c(CC)c4)nccn23)c(C(F)F)n1` [Example 774, (4-(4-((3-(1-allyl-3-(difluoromethyl)-1H-pyrazol-4-yl)imidazo[1,2-a]pyrazin-8-yl)amino)-2-ethylbenzoyl)piperazin-1-yl)((2S,4R)-4-hydroxypyrrolidin-2-yl)methanone], which IC90 is on record?
**A.** 0.986 µM

**Q.** How did the IC90 turn out when `Cc1cc(Nc2nccn3c(-c4c[nH]nc4C(F)(F)F)cnc23)cc(F)c1C(=O)N1CCNCC1` [Example 86, [2-fluoro-6-methyl-4-[[3-[3-(trifluoromethyl)-1H-pyrazol-4-yl]imidazo[1,2-a]pyrazin-8-yl]amino]phenyl]-piperazin-1-ylmethanone] was run?
**A.** 3.38 µM

Same assay, conditions: strain ATCC 17961, OD600 growth over 16 h, read-out: A. baumannii ATCC 17961 IC90

**Q.** How did the IC90 turn out when `N[C@H]1CC[C@@H](NC(=O)N2CCN(C(=O)c3ccc(Nc4nccn5c(-c6c[nH]nc6C(F)(F)F)cnc45)cc3Cl)CC2)C1` [Example 238, N-[(1R,3S)-3-aminocyclopentyl]-4-[2-chloro-4-[[3-[3-(trifluoromethyl)-1H-pyrazol-4-yl]imidazo[1,2-a]pyrazin-8-yl]amino]benzoyl] piperazine-1-carboxamide formate] was run?
**A.** 0.2 µM

**Q.** Which IC90 does the source give for `N#CCn1cc(-c2cnc3c(Nc4ccc(C(=O)N5CCN(C(=O)N6CC[C@@H](N)C6)CC5)c(Cl)c4)nccn23)c(C(F)(F)F)n1` [Example 179, 2-[4-[8-4-[4-[(3R)-3-aminopyrrolidine-1-carbonyl]piperazine-1-carbonyl]-3-chloroanilino]imidazo[1,2-a]pyrazin-3-yl]-3-(trifluoromethyl) pyrazol-1-yl]acetonitrile formate] here?
**A.** 0.181 µM

**Q.** Which IC90 does the source give for `C#CCNCCCNC(=O)c1c(C)cc(Nc2nccn3c(-c4cn(CCF)nc4C(F)(F)F)cnc23)cc1F` [Example 74, 2-fluoro-4-[[3-[1-(2-fluoroethyl)-3-(trifluoromethyl)pyrazol-4-yl]imidazo[1,2-a]pyrazin-8-yl]amino]-6-methyl-N-[3-(prop-2-ynylamino)propyl] benzamide] here?
**A.** 0.781 µM
